Results taken from patent US20240122180A1, “FUNGICIDAL HALOMETHYL KETONES AND HYDRATES AND THEIR MIXTURES” (FMC Corporation, priority 2020, published 2024).
Marks after values point to notes of the source that are not given here.

Key:
Assay type in all cases: in vivo
[1] = system: Phakopsora pachyrhizi (the causal agent of Asian soybean rust); assay: Test A: preventive spray on soybean seedlings, visual disease rating (100 = 100% control; * 50 ppm, ** 10 ppm, *** 250 ppm); settings: 100 = 100% disease control, 0 = no control
How it was run: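 Preventive test: one day after spraying compound (acetone/water suspension, 250 ppm PEG400), seedlings received rust spore inoculum, 24 h in saturated air then 8 days in growth chamber, both at 22 °C. Disease control scored visually, 100 = complete, 0 = none, relative to untreated controls.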

[2] = system: Puccinia recondita f. sp. tritici (the causal agent of wheat leaf rust); assay: Test B: preventive spray on wheat seedlings, disease rating (100 = 100% control; * 50 ppm, ** 10 ppm, *** 250 ppm); settings: 100 = 100% disease control, 0 = no control
How it was run: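 Preventive test: Puccinia recondita f. sp. tritici spores were inoculated one day after run-off spraying of wheat seedlings with test suspension (acetone/water 50/50, 250 ppm PEG400). After 24 h in saturated air and 6 days in a growth chamber, both at 20° C, control was scored 0–100 versus untreated plants.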

[3] = system: Zymoseptoria tritici (the causal agent of wheat leaf blotch); assay: Test D: preventive spray on wheat seedlings, disease rating (100 = 100% control; * 50 ppm, ** 10 ppm, *** 250 ppm); settings: 250 ppm test suspension; 100 = 100% disease control, 0 = no control
Text: (§1) General protocol for preparing test suspensions for Tests A-E: the test compounds were first dissolved in acetone in an amount equal to 3% of the final volume and then suspended at the desired concentration (in ppm) in acetone and purified water (50/50 mix by volume) containing 250 ppm of the surfactant […] (polyhydric alcohol esters). The resulting test suspensions were then used in Tests A-E.
The test solution was sprayed to the point of run-off on wheat seedlings. The following day the seedlings were inoculated with a spore suspension of Zymoseptoria tritici (the causal agent of wheat leaf blotch) and incubated in a saturated atmosphere at 24° C. for 48 h, and then moved to a growth chamber at 20° C. for 17 days, after which time disease ratings were made.
(§2) Results for Tests A-E are given in Table A. In the Table, a rating of 100 indicates 100% disease control and a rating of 0 indicates no disease control (relative to the controls). An asterisk “*” or a double asterisk “**” or a triple asterisk “***” next to the rating value indicates a 50 ppm, 10 ppm and 250 ppm test suspension was used, respectively. A dash (-) indicates the compound was not tested.

[4] = system: Blumeria graminis f. sp. tritici (the causal agent of wheat powdery mildew); assay: Test E: preventive spray on wheat seedlings, visual disease rating (100 = 100% control; * 50 ppm, ** 10 ppm, *** 250 ppm); settings: 250 ppm test suspension; 100 = 100% disease control, 0 = no control
Text: as §1
The test suspension was sprayed to the point of run-off on wheat seedlings. The following day the seedlings were inoculated with a spore dust of Blumeria graminis f. sp. tritici, (also known as Erysiphe graminis f. sp. tritici, the causal agent of wheat powdery mildew) and incubated in a growth chamber at 20° C. for 8 days, after which time visual disease ratings were made.
as §2

SMILES: CC(=O)N1CC(c2ccc(OCC3(C(F)(F)F)OCCO3)cc2)C1 [compound 372]
- Test A disease control rating ([1]; 50 ppm test suspension): 97%
- Test B disease control rating ([2]; 50 ppm test suspension): 28%
- Test D disease control rating [3]: 99*** %
- Test E disease control rating [4]: 99*** %

SMILES: CCOC(=O)c1cnn(Cc2ccc(O/C=C(\OCC)C(F)(F)F)c(I)c2)c1 [compound 374]
- Test A disease control rating ([1]; 50 ppm test suspension): 0%
- Test B disease control rating ([2]; 50 ppm test suspension): 0%
- Test D disease control rating [3]: 0*** %
- Test E disease control rating [4]: 76*** %

SMILES: CCOC(=O)c1cnn(Cc2ccc(N(C#N)CC(O)(O)C(F)(F)F)cc2)c1 [compound 381]
- Test A disease control rating ([1]; 10 ppm test suspension): 25%
- Test B disease control rating ([2]; 10 ppm test suspension): 28%
- Test D disease control rating [3]: 0*** %
- Test E disease control rating [4]: 69*** %

SMILES: CC(=O)N1CC(c2ccc(OCC(O)(O)C(F)(F)F)cc2)C1 [compound 384]
- Test A disease control rating ([1]; 50 ppm test suspension): 99%
- Test B disease control rating ([2]; 50 ppm test suspension): 83%
- Test D disease control rating [3]: 48*** %
- Test E disease control rating [4]: 87*** %

SMILES: CCOC(=COc1ccc(NC(=O)c2ccccc2F)cc1)C(F)(F)F [compound 461]
- Test A disease control rating ([1]; 50 ppm test suspension): 0%
- Test B disease control rating ([2]; 50 ppm test suspension): 0%
- Test D disease control rating [3]: 53*** %
- Test E disease control rating [4]: 69*** %
